US11065244B2, “Methods of use of tetrahydroberberine (THB)” (DIGNITY HEALTH, priority 2010, dated 2021)
pIC50: −log10 of the molar value.

What was measured:
Format in all cases: cell-based
[1] = target: T1, KATP channels in SNc DA neurons (Rattus norvegicus, UniProt P70673+Q09429); assay: Perforated patch current-clamp recording of rotenone-opened KATP channels in dissociated SNc DA neurons; settings: for altered membrane potential in the presence of rotenone: FIG. 5C
T1 construct: functional KATP channels natively expressed on midbrain dopamine neurons; from tissue; host or cells: acutely dissociated dopaminergic neurons of rat substantia nigra pars compacta
T1 sequence (P70673 whole entry): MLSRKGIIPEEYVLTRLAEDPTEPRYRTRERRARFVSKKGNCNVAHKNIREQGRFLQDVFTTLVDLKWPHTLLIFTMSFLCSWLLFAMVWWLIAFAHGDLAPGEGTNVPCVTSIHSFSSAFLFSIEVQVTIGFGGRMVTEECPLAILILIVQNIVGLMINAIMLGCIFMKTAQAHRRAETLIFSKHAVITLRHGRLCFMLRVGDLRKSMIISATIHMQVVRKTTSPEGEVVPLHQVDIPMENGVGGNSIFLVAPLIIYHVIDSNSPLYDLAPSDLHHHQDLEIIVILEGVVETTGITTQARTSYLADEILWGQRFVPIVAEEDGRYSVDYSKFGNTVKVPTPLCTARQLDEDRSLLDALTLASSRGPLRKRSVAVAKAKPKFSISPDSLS
T1 sequence (Q09429 whole entry): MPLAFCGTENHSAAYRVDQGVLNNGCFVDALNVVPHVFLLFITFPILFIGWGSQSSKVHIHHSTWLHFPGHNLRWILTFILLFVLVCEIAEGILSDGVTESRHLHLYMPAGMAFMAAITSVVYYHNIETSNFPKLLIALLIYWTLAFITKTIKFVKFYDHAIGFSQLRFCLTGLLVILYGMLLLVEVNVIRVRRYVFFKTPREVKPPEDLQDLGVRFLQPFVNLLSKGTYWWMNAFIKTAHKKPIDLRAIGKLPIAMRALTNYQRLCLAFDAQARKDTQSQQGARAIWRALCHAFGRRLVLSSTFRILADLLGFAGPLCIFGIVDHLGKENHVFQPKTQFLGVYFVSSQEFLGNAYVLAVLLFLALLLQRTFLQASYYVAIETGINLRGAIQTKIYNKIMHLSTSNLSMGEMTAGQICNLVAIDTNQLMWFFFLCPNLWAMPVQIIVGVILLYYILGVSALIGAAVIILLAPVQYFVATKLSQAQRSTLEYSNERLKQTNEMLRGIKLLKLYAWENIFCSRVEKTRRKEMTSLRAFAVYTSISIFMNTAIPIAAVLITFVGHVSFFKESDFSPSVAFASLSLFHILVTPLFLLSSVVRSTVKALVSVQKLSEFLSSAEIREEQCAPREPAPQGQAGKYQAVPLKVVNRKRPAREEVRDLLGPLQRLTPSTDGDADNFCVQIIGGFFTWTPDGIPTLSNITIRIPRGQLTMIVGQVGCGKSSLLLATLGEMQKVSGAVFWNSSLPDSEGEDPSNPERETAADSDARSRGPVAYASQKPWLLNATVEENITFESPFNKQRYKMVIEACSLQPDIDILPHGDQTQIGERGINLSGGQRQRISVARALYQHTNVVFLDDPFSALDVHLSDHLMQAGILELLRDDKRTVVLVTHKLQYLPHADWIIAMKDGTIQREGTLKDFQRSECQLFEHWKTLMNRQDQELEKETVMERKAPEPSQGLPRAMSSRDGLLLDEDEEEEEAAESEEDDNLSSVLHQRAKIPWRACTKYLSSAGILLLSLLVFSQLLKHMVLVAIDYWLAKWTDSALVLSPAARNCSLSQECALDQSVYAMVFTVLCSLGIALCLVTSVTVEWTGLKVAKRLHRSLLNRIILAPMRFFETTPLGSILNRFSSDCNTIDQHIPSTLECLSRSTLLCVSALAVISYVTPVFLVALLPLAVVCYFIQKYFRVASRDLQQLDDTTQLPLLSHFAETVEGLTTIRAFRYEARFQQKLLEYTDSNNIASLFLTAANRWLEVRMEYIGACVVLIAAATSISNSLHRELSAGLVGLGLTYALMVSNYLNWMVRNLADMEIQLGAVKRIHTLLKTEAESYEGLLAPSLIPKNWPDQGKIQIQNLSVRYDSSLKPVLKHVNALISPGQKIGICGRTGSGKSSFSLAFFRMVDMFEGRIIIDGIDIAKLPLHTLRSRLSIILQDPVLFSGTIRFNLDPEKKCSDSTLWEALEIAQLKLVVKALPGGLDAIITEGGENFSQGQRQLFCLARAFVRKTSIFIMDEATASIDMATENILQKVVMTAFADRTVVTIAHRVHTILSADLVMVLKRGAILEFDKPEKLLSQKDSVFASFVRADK
Method: (§1) The protocol for preparation of single neurons from the rat SNc was approved by the Institutional Animal Care and Use Committee of the Barrow Neurological Institute. Single DA neurons were acutely dissociated from the SNc of 2-3-week-old Wistar rats following the protocol as previously described. Briefly, rats were anesthetized with isoflurane, and brain tissue was rapidly removed and immersed in cold (2-4° C.) dissection solution which contained: 136.7 mM NaCl, 5 mM KCl, 0.1 mM Na2HPO4, 0.2 mM KH2PO4, 9.84 mM HEPES, 16.6 mM D-glucose, 21.9 mM sucrose, pH 7.3, 330 mOsm, oxygenated with 100% O2 [8]. Three 400-μm coronal slices containing the SNc were cut using a vibrotome (Vibroslice 725M, WPI, Sarasota, Fla.). After cutting, slices were continuously bubbled with 95% O2-5% CO2 at room temperature (22±1° C.) for at least one hour in artificial cerebrospinal fluid (ACSF), which contained: 124 mM NaCl, 5 mM KCl, 24 mM NaHCO3, 1.3 mM MgSO4, 1.2 mM KH2PO4, 2.4 mM CaCl2, and 10 mM glucose, pH 7.4. Thereafter, slices were treated with pronase (1 mg per 6 ml) at 31° C. for 30 minutes in ACSF. The SNc was identified in a coronal slice using a stereo microscope with reference to the rat brain atlas, and was micro-punched out from slices using a well-polished needle. One punched piece was then transferred to a 35-mm culture dish filled with well-oxygenated standard extracellular solution, which contained: 150 mM NaCl, 5 mM KCl, 1 mM MgCl2, 2 mM CaCl2, 10 mM glucose 10, and 10 mM HEPES, pH 7.4 (with Tris-base). The punched piece was then dissociated mechanically using a fire-polished micro-Pasteur pipette under an inverted microscope (Olympus IX-70, Lake Success, N.Y.). The separated cells adhered to the bottom of the culture dish within 30 minutes. In the present study, we used only DA neurons that maintained their original morphological features of polygonal, large or medium somata with 2-4 thick primary dendritic processes were used.
Perforated patch whole-cell recording techniques were employed as previously described. Pipettes (3-5 MΩ) used for perforated patch recording were filled with intracellular recording solution containing 140 mM potassium gluconate, 10 mM KCl, 5 mM MgCl2, and 10 mM HEPES, pH 7.2 (with Tris-OH). The amphotericin B was freshly prepared to 200-240 μg/ml from a 40 mg/ml in DMSO stock. The liquid junction potential was 14 mV calculated using Clamplex 9.2 (Axon Instruments, Foster City, Calif.) and corrections were made for junction potentials post-hoc. After tight seal (>2 GΩ) formation, it usually took about 5-20 min to convert to perforated patch mode, and an access resistance of 20-60 MΩ was accepted to start the experiments. Series resistance was not compensated in this study. The data were filtered at 2 kHz, acquired at 10 kHz and digitized on-line (Digidata 1322 series A/D board, Axon Instruments, Foster City, Calif.). […] Drug application was performed using a computer-controlled “U-tube” system as previously described. All experiments were performed at room temperature (22±1° C.). To enable identification of single, dissociated SNc neurons after a patch-clamp recording session, the recording pipette was filled with a fluorescent dye (lucifer yellow CH, Sigma Chemical Co., St. Louis, Mo., 1.0 mg/ml in the recording electrode) in some experiments. After conversion from the perforated patch to the conventional whole-cell recording mode, the dye was ejected into the cytoplasm by a pulse (200 ms, 0.5 Hz) of hyperpolarizing current (1.0 nA) for 3 min. Labeled cells were visualized using epifluorescence microscopy.
Under physiological conditions, the KATP channels are mostly closed. However, in the acutely-dissociated single neurons from rat SNc, there is background opening of KATP channels. […]

[2] = target: T2, neuronal KATP channels (Rattus norvegicus, UniProt P70673+Q09429); assay: Rotenone-induced outward current in voltage-clamp mode in the presence of the D2 receptor antagonist sulpiride; settings: 100 mM substance as printed; sulpiride present; VH −30 mV; from 125.8±37.1 pA; 6 neurons; p<0.01
T2 construct: functional KATP channels natively expressed on midbrain dopamine neurons; from tissue; host or cells: acutely dissociated dopaminergic neurons of rat substantia nigra pars compacta
T2 sequence (P70673 whole entry): as the sequence (P70673 whole entry) above
T2 sequence (Q09429 whole entry): as the sequence (Q09429 whole entry) above
Method: as §1, with “In the present study, we used only DA neurons that maintained their original morphological features of polygonal, large or medium somata with 2-4 thick primary dendritic processes were used.” left out
Perforated patch whole-cell recording techniques were employed as previously described. […] The liquid junction potential was 14 mV calculated using Clamplex 9.2 (Axon Instruments, Foster City, Calif.) and corrections were made for junction potentials post-hoc. […]

[3] = target: T3, pancreatic β-cell KATP channels (Rattus norvegicus, UniProt P70673+Q09429); assay: Whole-cell KATP currents induced by ramp pulses in rat pancreatic β-cells; settings: 100 μM bath application; external glucose 5.5 mM; ramp −90 to −50 mV
T3 construct: Single Channel Currents of KATP Channels in Rat Pancreatic β-Cells; from tissue; host or cells: rat pancreatic β-cells
T3 sequence (P70673 whole entry): as the sequence (P70673 whole entry) above
T3 sequence (Q09429 whole entry): as the sequence (Q09429 whole entry) above
Method: To determine whether or not THB and Ipt can block pancreatic β-cell KATP channels, whole-cell currents induced by repetitive ramp pulses from −90 to −50 mV (at 0.2 Hz) were recorded in voltage-clamp mode (external glucose=5.5 mM).

[4] = target: T3, pancreatic β-cell KATP channels; assay: Inside-out patch single channel recording in rat pancreatic β-cells, ATP free solution; settings: bath-applied

In the case of `COc1ccc2c(c1OC)CN1CCc3cc4c(cc3C1C2)OCO4` (centres unmarked) [THB, tetrahydroberberine], the “membrane potential after substance during persistent perfusion of rotenone” value ([1]; 1 μM rotenone, before: THB −61.7±1.3 (n=11), tolbutamide −61.6±1.2 (n=21), p<0.01) was −46.7±0.9 mV, the “altered membrane potential in the presence of rotenone” value ([1]; 1 μM substance) was 0.8±0.3 mV and the “altered membrane potential in the presence of rotenone” value ([1]; 10 μM substance) was 5.7±0.7 mV. The “altered membrane potential in the presence of rotenone” value ([1]; 100 μM substance) was 15.1±1.2 mV, the “altered membrane potential (depolarization) on rotenone-opened KATP channels, analog comparison” value ([1]; 100 μM, 6 neurons, FIG. 4B) was 15.5±1.6 mV and the “Hill coefficient of concentration-effect relationship curve” value ([1]; membrane depolarization in the presence of rotenone) was 2.1. The pIC50 ([1]; membrane depolarization in the presence of rotenone, read-out: IC50 of concentration-effect relationship curve (block of KATP channels)) was 4.88, the “effect on rotenone-induced membrane hyperpolarization in the presence of D2 receptor antagonist” value ([1]; rotenone 1 mM and sulpiride 10 mM as printed, 6 neurons, FIG. 7A) was “significantly restored membrane hyperpolarization and action potential firing” and the “rotenone-induced outward current amplitude after addition of substance” value [2] was 52.5±25.7 pA. For the same molecule, the “effect on β-cell KATP channel-mediated whole-cell currents” value [3] was “reduced these β-cell KATP channel-mediated currents” and the “effect on single channel activities opened by ATP free solution” value [4] was “inhibited these single channel activities”.
